The source of these data is ChEMBL document CHEMBL1133482, “1-Phenyl-5-pyrazolyl ureas: potent and selective p38 kinase inhibitors” (Bioorg Med Chem Lett, 2000).

Values after ≈ are worked out from the molar mass of the structure shown.

The nature of the data set: Aqueous solubility at pH 7.5. Type of data set: physicochemical.
One may read the solubility as the concentration that dissolves in the medium under given conditions. A low value points to little dissolved substance. Turning to `CC(C)(C)c1cc(NC(=O)Nc2cccc(Cl)c2Cl)n(-c2ccccc2)n1`, the solubility came out at 24 µg/mL (≈ 59.5 µM).
Turning to `CC(C)(C)c1cc(NC(=O)Nc2cccc(Cl)c2Cl)n(-c2cccc(N)c2)n1`, the solubility turned out to be 594 µg/mL (≈ 1420 µM).
As to `CC(C)(C)c1cc(NC(=O)Nc2cccc(Cl)c2Cl)n(-c2cccc([N+](=O)[O-])c2)n1`, the solubility came out at 18 µg/mL (≈ 40.2 µM).
As for `CC(C)(C)c1cc(NC(=O)Nc2cccc(Cl)c2Cl)n(-c2ccc(S(C)(=O)=O)cc2)n1`, the figure is 79 µg/mL (≈ 164 µM); as for `COc1cccc(-n2nc(C(C)(C)C)cc2NC(=O)Nc2cccc(Cl)c2Cl)c1`, 46 µg/mL (≈ 106 µM); as for `CC(C)(C)c1cc(NC(=O)Nc2cccc(Cl)c2Cl)n(-c2cccc(F)c2)n1`, 17 µg/mL (≈ 40.4 µM).
On to `CC(C)(C)c1cc(NC(=O)Nc2cccc(Cl)c2Cl)n(-c2ccc([N+](=O)[O-])cc2)n1`, for which the solubility came to 66 µg/mL (≈ 147 µM).
